Patent US20240358693A1, “METHODS OF TREATING PAIN” (Aisa Pharma, Inc., priority 2023, published 2024)

System: participants with Raynaud's Phenomenon secondary mostly to systemic sclerosis (SSc-RP)
Experiment: Frequency of weekly symptomatic RP attacks (patient diary), Phase 2a study Part A
Format: in vivo, human
Experimental: A randomized, placebo-controlled phase 2a study was performed and is in progress to assess the safety and efficacy of cilnidipine (10 mg and 20 mg) alone and in combination with 5 mg tadalafil, in participants with diagnosis of scleroderma and/or secondary Raynaud's disease.
The relevant metrics measured by this tool daily are: • Study medication • SSc-RP symptoms (Reporting an attack including duration of attack) • Severity of the attack considering all symptoms of the attack e.g., tingling, numbness, pain, color changes (VAS 0-10 cm scale) • Participant's location at the time of the attack (inside home/outside home) • Selecting symptoms experienced during the attack (tingling, numbness, pain, color changes, other) • Pain rating during the attack (11-point Likert scale) • The RCS based on how much difficulty participants had with Raynaud's today, how many attacks the participant had, and how long they lasted. Participants will also be asked to consider how much pain, numbness, or other symptoms the Raynaud's caused in fingers (including painful sores), and how much the Raynaud's alone affected the use of hands today (VAS 0-10 cm scale).
Percent change from baseline evaluation for frequency of weekly RP attacks were or will be used as the primary efficacy variable. The sponsor-developed participant-informed diary will be used to record data. Frequency of weekly RP attacks is defined as the total number of RP attacks divided by the number of days with available diary data within the last 7 days of each dosing period then multiplied by 7. Total number of RP attacks during the last 7 days of screening period divided by the number of days with available data then multiplied by 7 will be used as baseline for the analysis of all periods. The variable will be calculated as follows:
Percentage change={(weekly RP attacks for the last 7 days of each dosing period−Baseline weekly RP attacks)/Baseline weekly RP attacks}*100%.
Absolute change=weekly RP attacks for the last 7 days of each dosing period−Baseline weekly RP attacks
Percent change from baseline evaluation for frequency of weekly RP attacks was and will be the primary efficacy endpoint. Frequency of weekly RP attacks is defined as the total number of RP attacks divided by the number of days with available diary data within the last 7 days of each dosing period then multiplied by 7. Total number of RP attacks during the last 7 days of screening period divided by the number of days with available data then multiplied by 7 will be used as baseline for the analysis of all periods.
The following data was actually obtained in accordance with the protocol and plan delineated in Examples 1 and 2. The accompanying data involved 11 patients out of the planned 76 patient study. The study was done in patients with scleroderma (systemic sclerosis) who had relatively frequent Raynaud symptoms as they needed to average at least one attack per day during a screening period of up to two weeks. In this first phase of this double-blind placebo-controlled, prospective randomized study, patients were treated in parallel and after meeting study criteria were randomized to receive either placebo, cilnidipine 10 mg daily, cilnidipine 20 mg daily, tadalafil 5 mg daily, cilnidipine 10 mg plus 5 mg of tadalafil, or cilnidipine 20 mg plus 5 mg of tadalafil.

[1] = Tadalafil 5 mg (N = 2), ITT Part A
[2] = Tadalafil 5 mg, n 1, Excluding Outliers, ITT Part A
[3] = Tadalafil 5 mg, n 2, by Baseline RCS, 2nd block (RCS >5.0), ITT Part A
[4] = excluding outliers, by baseline RCS, second subgroup, cilnidipine 10 mg, tadalafil 5 mg daily

CN1CC(=O)N2[C@H](c3ccc4c(c3)OCO4)c3[nH]c4ccccc4c3C[C@@H]2C1=O [Tadalafil, tadalafil]
Weekly Symptomatic RP Attacks Change from Baseline, Mean [1]: 4.50 | Weekly Symptomatic RP Attacks Change from Baseline, Median [1]: 4.50 | Weekly Symptomatic RP Attacks Percent Change from Baseline, Mean [1]: 62.50% | Weekly Symptomatic RP Attacks Percent Change from Baseline, Median [1]: 62.50% | Weekly Symptomatic RP Attacks, Mean [1]: 12.50 | Weekly Symptomatic RP Attacks, Median [1]: 12.50 | Weekly Symptomatic RP Attacks Change from Baseline, Mean (SD) [2]: 6.00 | Weekly Symptomatic RP Attacks Change from Baseline, Median [2]: 6.00 | Weekly Symptomatic RP Attacks Percent Change from Baseline, Mean (SD) [2]: 50.00% | Weekly Symptomatic RP Attacks Percent Change from Baseline, Median [2]: 50.00% | Weekly Symptomatic RP Attacks, Mean (SD) [2]: 18.00 | Weekly Symptomatic RP Attacks, Median [2]: 18.00 | Weekly Symptomatic RP Attacks Change from Baseline, Mean (SD) [3]: 4.50 (2.121) | Weekly Symptomatic RP Attacks Change from Baseline, Median [3]: 4.50 | Weekly Symptomatic RP Attacks Percent Change from Baseline, Mean (SD) [3]: 62.50 (17.678) % | Weekly Symptomatic RP Attacks Percent Change from Baseline, Median [3]: 62.50% | Weekly Symptomatic RP Attacks, Mean (SD) [3]: 12.50 (7.778) | Weekly Symptomatic RP Attacks, Median [3]: 12.50 | Weekly Symptomatic RP Attacks Change from Baseline, Max [4]: 6.0, 6.0 | Weekly Symptomatic RP Attacks Change from Baseline, Mean (SD) [4]: 6.00 | Weekly Symptomatic RP Attacks Change from Baseline, Median [4]: 6.00 | Weekly Symptomatic RP Attacks Change from Baseline, Min [4]: 6.0, 6.0 | Weekly Symptomatic RP Attacks Change from Baseline, Q1 [4]: 6.00, 6.00 | Weekly Symptomatic RP Attacks Change from Baseline, Q3 [4]: 6.00, 6.00 | Weekly Symptomatic RP Attacks Percent Change from Baseline, Max [4]: 50.0, 50.0% | Weekly Symptomatic RP Attacks Percent Change from Baseline, Mean (SD) [4]: 50.00% | Weekly Symptomatic RP Attacks Percent Change from Baseline, Median [4]: 50.00% | Weekly Symptomatic RP Attacks Percent Change from Baseline, Min [4]: 50.0, 50.0% | Weekly Symptomatic RP Attacks Percent Change from Baseline, Q1 [4]: 50.00, 50.00% | Weekly Symptomatic RP Attacks Percent Change from Baseline, Q3 [4]: 50.00, 50.00% | Weekly Symptomatic RP Attacks, Max [4]: 18.0, 18.0 | Weekly Symptomatic RP Attacks, Mean (SD) [4]: 18.00 | Weekly Symptomatic RP Attacks, Median [4]: 18.00 | Weekly Symptomatic RP Attacks, Min [4]: 18.0, 18.0 | Weekly Symptomatic RP Attacks, Q1 [4]: 18.00, 18.00 | Weekly Symptomatic RP Attacks, Q3 [4]: 18.00, 18.00
